Experimental data reported in US20240226217A9, “METHOD FOR EXTRACTING AND PURIFYING TOTAL FLAVONOIDS FROM CARTHAMUS TINCTORIUS L. LEAF (TFFCL), AND USE THEREOF” (Shaanxi University of Chinese Medicine, priority 2022, published 2024).

System: mice with CCl4-induced chronic liver injury
Test: CCl4-induced chronic liver injury in mice
Format: in vivo
Conditions: 6 weeks
Procedure: SPF-grade male C57BL/6 mice were randomly divided into 5 groups, 12 mice in each group. The groups were a control group, a model group, a silibinin group (positive control group), a TFFCL low-dose group, and a TFFCL high-dose group. In addition to the control group, mice in the model group, positive control group, TFFCL low-dose group, and TFFCL high-dose group were intraperitoneally injected with 20% CCl4 (CCl4: olive oil=1:4, 2 mL/kg); mice in the control group were intraperitoneally injected with an equal amount of olive oil solution. Each group was injected twice a week for 6 weeks. The silibinin and TFFCL were separately suspended in 0.5% CMC-Na solution. The silibinin group, TFFCL-L group (low-dose), and TFFCL-H group (high-dose) were administered silibinin 100 mg/kg, TFFCL 20 mg/kg, and TFFCL 40 mg/kg by gavage, respectively; while the control group and the model group were intragastrically administered the same amount of 0.5% CMC-Na solution. Each group was given continuous intragastric administration once a day for 6 weeks. During the animal feeding, the body weight of mice was monitored and recorded weekly; 16 h after the last administration in the 6th week, blood was collected from the orbit of the mice, the liver and spleen of the mice were weighed and photographed, and wet weights of the liver and spleen were recorded. The organ index was calculated (organ index=organ mass/body mass×100%).

With `COc1cc(C2Oc3cc([C@H]4Oc5cc(O)cc(O)c5C(=O)[C@@H]4O)ccc3OC2CO)ccc1O` (some centres unmarked) [Positive group, silibinin] the Liver index (silibinin 100 mg/kg by gavage once a day) was 4.42 ± 0.30 %, the Spleen index (silibinin 100 mg/kg) was 0.35 ± 0.02% and the “liver tissue CAT” value (silibinin 100 mg/kg) was 262.23 ± 73.45 U/mg. For the same compound, the “liver tissue GSH-PX” value (silibinin 100 mg/kg) was 7.84 ± 3.75 U/mg, the “liver tissue MDA” value (silibinin 100 mg/kg) was 1.12 ± 0.28 nmol/mg and the “liver tissue SOD” value (silibinin 100 mg/kg) was 9.33 ± 2.47 U/mg. For the same compound, the “serum ALT” value (silibinin 100 mg/kg) was 80.58 ± 18.26 U/L, the “serum AST” value (silibinin 100 mg/kg) was 226.58 ± 45.39 U/L and the “serum IL-1β” value (silibinin 100 mg/kg) was 152.13 ± 30.49 pg/mL. For the same compound, the “serum IL-6” value (silibinin 100 mg/kg) was 81.40 ± 15.12 pg/mL and the “serum TNF-α” value (silibinin 100 mg/kg) was 252.32 ± 34.16 pg/mL.
